Patent US20050209157A1, “Short bioactive peptides and methods for their use” (priority 2001, published 2005)
Read-outs that look alike come from different tables or passages of the source. No end group written: not given here.

Legend:
Escherichia coli 25922 = assay: microbe, parasite or virus in culture; conditions: for MBC: Escherichia coli, 25922, read-out: MBC, Without peptide
Excerpt: Synergy between peptide Shiva-10 (SEQ ID NO:4) and various antimicrobial agents was investigated against Escherichia coli 25922.
Synergy between tetracycline and various peptides was investigated against Escherichia coli 25922 MBC. […] When combined with the peptides, the concentration of tetracycline was held at 1.5 ppm.

[1] = system: Candida glabrata ATCC15126; assay: Antimicrobial assays II, NCCLS broth microdilution MIC; format: cell-based; conditions: Table 10; in µg/mL
Candida albicans 105 = format: cell-based; conditions: in µg/mL
[2] = system: Pseudomonas aeruginosa H187; format: cell-based; conditions: in µg/mL
[3] = system: Candida tropicalis ATCC13803; assay: Antimicrobial assays II, NCCLS broth microdilution MIC; format: cell-based; conditions: Table 10
Protocol: Anti-microbial activity against a broader range of pathogens (including clinical strains) than were tested in Example 2. It should be noted that somewhat different protocols were employed for the assays in Example 2 and Example 3.
MICs were determined for this Example using a slightly modified version of the NCCLS (National Committee for Clinical Laboratory Standards) broth microdilution method as described previously (Steinberg et al., AAC 41: 1738, 1997). Briefly, antimicrobial agents were prepared as 10× concentrates in the most appropriate solvent. For the peptide, 0.01% acetic acid containing 0.2% bovine serum albumin as a carrier protein was used. Inocula were prepared by resuspending colonies from a BAP in medium and adjusting the suspension to match that of a 0.5 McFarland standard. The suspension was diluted into fresh medium (as recommended by NCCLS for the organism) to give 2×10^5 to 7×10^5 CFU/ml for bacteria or 2×10^3 to 7×10^3 CFU/ml for Candida. After dispensing 100 μl aliquots of the microbial suspension into each well of a 96-well polypropylene microtiter plate, 11 μl of test compound was added. […] For facultative anaerobes incubation was performed in 7% carbon dioxide and for strict anaerobes in an oxygen free environment maintained using a standard anaerobic “jar”. All MICs were performed three times and the mean value determined.

S. aureus (MRSA) = format: cell-based, Staphylococcus aureus; conditions: in µg/mL
E. coli UB1005 = format: cell-based, Escherichia coli
S. typhimurium 14028S = format: cell-based, Salmonella typhimurium
[4] = system: MCF7 line of breast cancer cells
[5] = system: Pseudomonas aeruginosa ATCC 9027; assay: Antimicrobial assay I, MIC by OD measurement; format: cell-based
cancer cell lines = assay: Anti-cancer assays, MTT, summary over the cancer cell lines; format: cell-based; conditions: X = preferred
[6] = system: Pseudomonas aeruginosa ATCC 27853; assay: Antimicrobial assay I, modified protocol (tryptic soy broth), MBC; conditions: minimum bactericidal concentration, Table 4
Protocol: The preparation of all media, stock solutions, and dilutions took place in a laminar flow hood to prevent contamination. Bacterial cells were freshly grown on antibiotic medium 2 agar slants (pH 7.0 at 25° C.). Bacteria were suspended and diluted in antibiotic medium 3 to about 10^4 cfu/ml and used as the inoculum. Sample solutions (100 μl/well) were added to plates according to the plate layout. Inoculum (100 μl/well) was added to achieve a final concentration of 5×10^3 cfu/ml. Negative controls received 100 μl saline and 100 μl growth medium. Positive controls received 100 μl saline and 100 μl inoculum. Bacterial plates were incubated at 37° C. for 24 hours.
However, the data for Table 4 were obtained with a modified protocol wherein the medium was tryptic soy broth, inocolum strength was approximately 10^4 CFU per ml, and values determined were minimum bactericidal concentrations (MBC) or minimum fungicidal concentrations (MFC).
MBC or MFC values are in μg/mL. E. coli is Escherichia coli ATCC accession number 25922; P. aerug is Pseudomonas aeruginosa ATCC accession number 27853, S. aur. is Stapholococcus aureus ATCC accession number 25923; Candida is Candida albicans ATCC accession number 10231.

[7] = system: Candida albicans ATCC 10231; assay: Antimicrobial assay I, modified protocol (tryptic soy broth), MFC; conditions: minimum fungicidal concentration, Table 4
WI38 = conditions: Table 27
[8] = system: Escherichia coli ATCC 25922; assay: Antimicrobial assay I, modified protocol (tryptic soy broth), MBC; conditions: minimum bactericidal concentration, Table 4
[9] = system: Stapholococcus aureus ATCC 25923; assay: as above; conditions: minimum bactericidal concentration, Table 4
fungal = assay: Presently preferred antifungal peptides, selected from the MIC/MBC data; format: cell-based; conditions: X = preferred
Excerpt: The peptide's “length” is the number of amino acid residues in the sequence.

in vitro [10] = format: cell-based, human; conditions: human, human red blood cells
in vitro [11] = conditions: human, WI38 normal lung fibroblast cells, WI-38 LD50, Table 26, valine substitution
[12] = system: human red blood cells (RBC); assay: in vitro; format: cell-based; conditions: Table 27
S. epidermidis C621 = format: cell-based, Staphylococcus epidermidis; conditions: Table 15
P. aeruginosa H374 = format: cell-based, Pseudomonas aeruginosa; conditions: Table 14; in µg/mL
[13] = pH 7, Table 26, valine substitution, read-out: Hemolysis RBC LD50

Row | Compound | MIC C. glabrata ATCC15126 [1] | MIC C. albicans 105 (Candida albicans 105; Table 10) | MIC P. aeruginosa H187 ([2]; Table 11) | MIC C. tropicalis ATCC13803 [3] [µg/mL] | MIC S. aureus SAP0017 (S. aureus (MRSA); Table 11, strain SAP0017) | MIC E. coli UB1005 (E. coli UB1005; Table 11) [µg/mL] | MIC S. typhimurium 14028S (S. typhimurium 14028S; Table 11) [µg/mL] | further results
1 | NCC[C@H](O)C(=O)N[C@@H]1C[C@H](N)[C@@H](O[C@H]2O[C@H](CN)[C@@H](O)[C@H](O)[C@H]2O)[C@H](O)[C@H]1O[C@H]1O[C@H](CO)[C@@H](O)[C@H](N)[C@H]1O [Amikacin] | – | – | – | – | – | – | – | MBC (Escherichia coli 25922): 150 µg/mL; MBC, With peptide (Escherichia coli 25922; with 5 μg/mL peptide Shiva-10): 50 µg/mL
2 | FKLAFKLAKKAFL-NH2 [P122 (84)] | 64 | 32 | 32-128 | 4 | 128 | 64 | 128 | –
3 | FAKKALKALKKL-NH2 [P47 (29)] | 64 | 32 | 64-128 | 1 | >128 | 64 | > 128 | –
4 | CC/C(=C(\c1ccccc1)c1ccc(OCCN(C)C)cc1)c1ccccc1 [Tamoxifen] | – | – | – | – | – | – | – | MCF7 LD50 ([4]; agent alone): 20 µg/mL; Active agent LD50 on MCF7 cells: Total conc. ([4]; peptide plus tamoxifen concentration at LD50): 20 µg/mL; Active agent LD50 on MCF7 cells: Tamox. conc. ([4]; tamoxifen concentration at LD50 (peptide with tamoxifen; tamoxifen alone in its own line)): 20 µg/mL
5 | NC[C@@H]1O[C@H](O[C@H]2[C@@H](O)[C@H](O[C@@H]3[C@@H](O)[C@H](N)C[C@H](N)[C@H]3O[C@H]3O[C@H](CN)[C@@H](O)[C@H](O)[C@H]3N)O[C@@H]2CO)[C@H](N)[C@@H](O)[C@@H]1O [Neomycin] | – | – | – | – | – | – | – | MBC, Without peptide (Escherichia coli 25922; agent alone): 100 µg/mL; MBC, With peptide (Escherichia coli 25922; with 5 μg/mL peptide Shiva-10): 5 µg/mL
6 | FAKLLAKFLKKAL-NH2 [P113 (77)] | 32 | 32 | 32-128 | 4 | 32 | 32 | 44 | –
7 | FAKLLAKALKKL-NH2 [P103 (67)] | 16 | 16 | 64 | 2 | 64 | 32 | 128 | –
8 | VAKLLAKLAKKLL-NH2 [compound 48] | – | – | – | – | – | – | – | P. aerug (MIC) [5]: 5 µg/mL; Anti-cancer (preferred peptide) (cancer cell lines): X (Preferred anticancer peptides can be selected as having LD50 values of less than or equal to about 25 μg/ml); MBC P. aerug A.27853 [6]: 25 µg/mL; MFC Candida A.10231 [7]: 10 µg/mL; WI38 LD50 (WI38): 160 µg/mL; MBC E. coli A.25922 [8]: 8 µg/mL; MBC S. aur A.25923 [9]: 4 µg/mL; Anti-fungal (preferred peptide) (fungal): X (Preferred antifungal peptides can be selected as having MIC or MBC values of less than or equal to about 25 μg/ml); HC50 at 1 h (in vitro [10]; [13]): 130 µg/mL; HC50 at 1 h (in vitro [10]; pH 7, Table 27, read-out: Hemolysis (LD50)): 200 µg/mL; CC50 at 24 h (in vitro [11]): 160 µg/mL
9 | FALALKALKKLKKALKKAL-NH2 [FLAK 06AM (P27; SEQ ID NO: 12)] | – | – | – | – | – | – | – | MBC, Without tetracycline (Escherichia coli 25922; peptide alone): 75 µg/mL; MBC, With tetracycline (Escherichia coli 25922; tetracycline held at […]): 25 µg/mL
10 | C[C@H]1c2cccc(O)c2C(=O)C2=C(O)[C@]3(O)C(=O)C(C(N)=O)=C(O)[C@@H](N(C)C)[C@@H]3[C@@H](O)[C@@H]21 [Doxycycline] | – | – | – | – | – | – | – | MBC (Escherichia coli 25922): 5 µg/mL; MBC, With peptide (Escherichia coli 25922; with 15 μg/mL peptide Shiva-10): 1 µg/mL
11 | FAKLLAKALKLKL-NH2 [P101 (65)] | 32 | 32 | 32-128 | 4 | 128 | 32 | 128 | –
12 | FAKKLAKKLAKAL-NH2 [P74 (50)] | 16 | 16 | 32-128 | 1 | >128 | 16 | 64 | –
13 | FAKLLAKLAKKL-NH2 [P49 (31)] | 16 | 16 | 16-64 | 2 | 64 | 32 | 64 | –
14 | FAKKLKKLAKKL-NH2 [P79 (54)] | 128 | 32 | >128 | 2 | >128 | 32 | > 128 | –
15 | FAKLLAKLAKKLL-NH2 [compound 43] | – | – | – | – | – | – | – | P. aerug (MIC) [5]: 100 µg/mL; Anti-cancer (preferred peptide) (cancer cell lines): X (Preferred anticancer peptides can be selected as having LD50 values of less than or equal to about 25 μg/ml); MBC P. aerug A.27853 [6]: 15 µg/mL; MFC Candida A.10231 [7]: 15 µg/mL; WI38 LD50 (WI38): 25 µg/mL; MBC E. coli A.25922 [8]: 8 µg/mL; MBC S. aur A.25923 [9]: 4 µg/mL; Anti-fungal (preferred peptide) (fungal): X (Preferred antifungal peptides can be selected as having MIC or MBC values of less than or equal to about 25 μg/ml); Hemolysis (LD50) [12]: 20 µg/mL; HC50 at 1 h (in vitro [10]; [13]): 20 µg/mL; CC50 at 24 h (in vitro [11]): 25 µg/mL
16 | FALAKKALKKAKKAL-NH2 [P40 (22)] | 32 | 32 | >128 | 1 | >128 | 64 | > 128 | –
17 | FAKKLAKLAKKL-NH2 [P106 (70)] | 64 | 32 | >128 | 2 | >128 | 64 | > 128 | –
18 | FALALKALKK-NH2 [P169 (130)] | 128 | 64 | 128 | 8 | >128 | 32 | 64 | MIC S. epidermidis C621 (S. epidermidis C621): 32 µg/mL; MIC P. aeruginosa H374 (P. aeruginosa H374): 128; MIC C. albicans 105 (Candida albicans 105; Table 15): 64; MIC P. aeruginosa H187 ([2]; Table 15): >128; MIC S. aureus SAP0017 (S. aureus (MRSA); Table 15, strain SAP0017): >128; MIC E. coli UB1005 (E. coli UB1005; Table 14): 64 µg/mL; MIC S. typhimurium 14028S (S. typhimurium 14028S; Table 14): 64 µg/mL
19 | FALALKLAKKAL-NH2 [P167 (128)] | 128 | 64 | 128 | 8 | 128 | 32 | 64 | –
20 | VAKLLAKLAKKVL-NH2 [P154 (116)] | 128 | 64 | >128 | 8 | >128 | 64 | > 128 | –
21 | FAKKLAKKAKLAKKL-NH2 [P77 (53)] | 64 | 16 | 64-128 | 1 | >128 | 64 | > 128 | –
